{
  "source": "patent US20260265239A1",
  "about": "“CRYSTAL FORM OF 2,6-PIPERIDINEDIONE COMPOUND, AND PREPARATION METHOD THEREFOR AND USE THEREOF” (ZHANGZHOU PIEN TZE HUANG PHARMACEUTICAL CO., LTD., priority 2023, published 2026)",
  "key": {"[1]": {"experiment": "Hygroscopicity study by dynamic vapor sorption (DVS)", "format": "physicochemical", "description": "• Instrument model: DVS Intrinsic Plus Dynamic Vapor Sorption Analyzer from SMS (Surface Measurement Systems) • Test conditions: The sample (10 to 20 mg) is placed in a DVS sample pan for testing.\nThe detailed DVS parameters are as follows: • Temperature: 25° C. • Equilibrium: dm/dt=0.002%/min (minimum: 10 min, maximum: 180 min) • Drying: 120 min at 0% RH • RH (%) test steps: 10% • RH (%) test step range: 0%-95%-0%\nThe hygroscopicity evaluation is classified as follows:\n• DVS Intrinsic Plus Dynamic Vapor Sorption Analyzer from SMS (Surface Measurement Systems)."}, "[2]": {"experiment": "Stability in solvents: anti-solvent addition, XRPD", "format": "physicochemical", "conditions": "anti-solvent Water", "description": "(§1) • Instrument model: PANalytacal X-ray Powder Diffractometer • Test method: Approximately 10 to 20 mg of the sample is used for XRPD detection.\n(§2) The detailed XRPD parameters are as follows: • X-ray tube: Cu, kα, (λ=1.540598 Å, λ=1.544426 Å). • X-ray tube voltage: 45 kV, X-ray tube current: 40 mA • Divergence slit: ⅛° • Scan mode: continuous • Scanning range (°2Theta): 3-40 • Scanning time per step (s): 46.7 • Scanning step size (°2Theta): […] • Test duration: approximately 5 min\nWhile stirring (1000 rpm), the anti-solvent listed in the table below was added dropwise to the clear solution until solids precipitated, or until the total volume of anti-solvent reached 10 mL. Samples without precipitation were stirred in suspension at 5° C., while clear samples were transferred to −20° C. for suspension stirring. If still clear, the samples were transferred to room temperature for volatilization. The precipitated solids were isolated and subjected to XRPD testing."}, "[3]": {"experiment": "Stability in solvents: suspension stirring at room temperature, XRPD", "format": "physicochemical", "conditions": "acetone, tetrahydrofuran, 1,4-dioxane, methanol, ethanol, isopropanol, water and mixed solvents with water", "description": "as §1, §2\nThe resulting suspensions were magnetically stirred at room temperature (1000 rpm) for 3 days, then centrifuged to collect the solids, which were subjected to XRPD testing."}, "[4]": {"experiment": "Pressure (mechanical) stability, XRPD", "format": "physicochemical", "conditions": "350 MPa", "description": "as §1, §2\nThe sample in the mold was compressed under a pressure of 350 MPa. The solid was collected for XRPD characterization."}, "[5]": {"experiment": "Solid stability test under high temperature, high humidity and strong light exposure", "format": "physicochemical", "description": "Samples placed under high-temperature conditions were examined in an electric blast drying oven, while samples placed under high-humidity conditions were examined in a comprehensive drug stability test chamber. Sampling and testing were conducted on the 5th, 10th, and 30th days, and the test results were compared with the initial test results on day 0. Samples placed under strong light exposure conditions were left open, and sampling and testing were performed on the 5th and 10th days, with the test results compared to the initial test results on day 0."}, "[6]": {"experiment": "Solid stability test under accelerated conditions", "format": "physicochemical", "excerpt": "Samples were taken for testing at the 1st, 2nd, and 3rd months, and the test results were compared with the initial test results at day 0."}, "[7]": {"experiment": "Solid stability test under long-term conditions", "format": "physicochemical", "excerpt": "Samples were taken for testing at the 1st and 2nd months, and the test results were compared with the initial test results at day 0."}, "[8]": {"experiment": "Pharmacokinetic evaluation in beagle dogs", "format": "in vivo", "conditions": "Intragastric administration, 5 mg/kg, listed as Crystal Form A of Compound of Formula (I)", "excerpt": "Male beagle dogs were selected as the experimental animals in this study. The LC/MS/MS method was employed to quantitatively determine the plasma drug concentrations at different time points after intravenous injection or intragastric administration of the test compound, aiming to evaluate the pharmacokinetic characteristics of the compound of the present disclosure in beagle dogs.\nBeagle dogs (male, 7 to 10 kg, Beijing Mars Biotechnology Co., Ltd.).\nA solution of the test compound was slowly injected intravenously into beagle dogs (fed) via the peripheral vein (vehicle: 5% DMSO/10% Solutol/85% H2O), or administered intragastrically to beagle dogs (fed). For intravenous administration, 0.5 mL of blood was collected from the peripheral vein at 0.083, 0.25, 0.5, 1, 2, 4, 6, 8, and 24 h after administration, placed in EDTA-2K anticoagulant tubes, and centrifuged at 3200 g for 10 minutes at 2 to 8° C. to separate the supernatant. For intragastric administration, 0.5 mL of blood was collected from the peripheral vein at 0.083, 0.25, 0.5, 1, 2, 4, 6, 8, and 24 h after administration, placed in EDTA-2K anticoagulant tubes, and centrifuged at 3200 g for 10 minutes at 2 to 8° C. to separate the supernatant. Plasma drug concentrations were determined by the LC-MS/MS method, and relevant pharmacokinetic parameters were calculated using Phoenix WinNonlin 6.3 or 8.3.5 pharmacokinetic software with non-compartmental model linear-log trapezoidal method."}, "[9]": {"conditions": "High Humidity (Room Temperature/Relative Humidity: 92.5%, Open), Day 5"}, "[10]": {"conditions": "High Humidity (Room Temperature/Relative Humidity: 92.5%, Open), Day 10"}, "[11]": {"conditions": "High Temperature (60° C., Open), Day 5"}, "[12]": {"conditions": "High Temperature (60° C., Open), Day 10"}, "[13]": {"conditions": "Strong Light Exposure (5000 ± 500 Lux, 90 μw/cm^2, Open), Day 10"}, "[14]": {"conditions": "Strong Light Exposure test, Day 10 (Light Exposure Control)"}, "[15]": {"conditions": "40° C./75% Relative Humidity, Sealed + Desiccant, 1 month"}, "[16]": {"conditions": "40° C./75% Relative Humidity, Sealed + Desiccant, 2 month"}, "[17]": {"conditions": "40° C./75% Relative Humidity, Sealed + Desiccant, 3 month"}, "[18]": {"conditions": "25° C./60% Relative Humidity, Sealed + Desiccant, 1 month"}, "[19]": {"conditions": "25° C./60% Relative Humidity, Sealed + Desiccant, 2 month"}},
  "data": [
    {"compound": "O=C1CCC(c2noc3ccc4c(NC(=O)CN5CCN(C[C@H]6CC[C@H](n7cc(NC(=O)c8coc(-c9ccnc(NCC%10CC%10)c9)n8)c(C(F)F)n7)CC6)CC5)cccc4c23)C(=O)N1", "note": "(stereo partly shown)", "values": [
      {"measurement": "crystal form before and after DVS", "setting": "[1]", "result": "no change in crystal form"},
      {"measurement": "ΔW (hygroscopic weight gain)", "setting": "[1]; DVS, 25° C. and 80% RH", "result": 3.536, "unit": "%"},
      {"measurement": "XRPD Results Anti-Solvent Addition", "setting": "[2]; solvent Dimethyl sulfoxide", "result": "Amorphous"},
      {"measurement": "XRPD Results Anti-Solvent Addition", "setting": "[2]; solvent N-Methylpyrrolidone", "result": "Amorphous"},
      {"measurement": "stability in solvents (conclusion)", "setting": "[3]", "result": "good stability"},
      {"measurement": "stability under compression mold pressure (conclusion)", "setting": "[4]", "result": "good stability"},
      {"measurement": "Content", "setting": "[5]; Day 0", "result": 100.0, "unit": "%"},
      {"measurement": "Total Impurities", "setting": "[5]; Day 0", "result": 2.4, "unit": "%"},
      {"measurement": "Content", "setting": "[5]; [9]", "result": 99.7, "unit": "%"},
      {"measurement": "Total Impurities", "setting": "[5]; [9]", "result": 2.4, "unit": "%"},
      {"measurement": "Content", "setting": "[5]; [10]", "result": 100.1, "unit": "%"},
      {"measurement": "Total Impurities", "setting": "[5]; [10]", "result": 2.5, "unit": "%"},
      {"measurement": "Content", "setting": "[5]; [11]", "result": 102.8, "unit": "%"},
      {"measurement": "Total Impurities", "setting": "[5]; [11]", "result": 2.5, "unit": "%"},
      {"measurement": "Content", "setting": "[5]; [12]", "result": 102.5, "unit": "%"},
      {"measurement": "Total Impurities", "setting": "[5]; [12]", "result": 2.5, "unit": "%"},
      {"measurement": "Content", "setting": "[5]; [13]", "result": 102.3, "unit": "%"},
      {"measurement": "Total Impurities", "setting": "[5]; [13]", "result": 2.6, "unit": "%"},
      {"measurement": "Content", "setting": "[5]; [14]", "result": 101.5, "unit": "%"},
      {"measurement": "Total Impurities", "setting": "[5]; [14]", "result": 2.4, "unit": "%"},
      {"measurement": "stability (conclusion)", "setting": "[5]; high temperature, high humidity, and strong light exposure conditions", "result": "good stability"},
      {"measurement": "Content", "setting": "[6]; [15]", "result": 99.3, "unit": "%"},
      {"measurement": "Total Impurities", "setting": "[6]; [15]", "result": 2.7, "unit": "%"},
      {"measurement": "Content", "setting": "[6]; [16]", "result": 99.5, "unit": "%"},
      {"measurement": "Total Impurities", "setting": "[6]; [16]", "result": 2.7, "unit": "%"},
      {"measurement": "Content", "setting": "[6]; [17]", "result": 99.1, "unit": "%"},
      {"measurement": "Total Impurities", "setting": "[6]; [17]", "result": 2.7, "unit": "%"},
      {"measurement": "Content", "setting": "[6]; Day 0", "result": 100.0, "unit": "%"},
      {"measurement": "Total Impurities", "setting": "[6]; Day 0", "result": 2.4, "unit": "%"},
      {"measurement": "stability (conclusion)", "setting": "[6]; accelerated conditions of 40° C./75% relative humidity", "result": "good stability"},
      {"measurement": "Content", "setting": "[7]; [18]", "result": 99.5, "unit": "%"},
      {"measurement": "Total Impurities", "setting": "[7]; [18]", "result": 2.8, "unit": "%"},
      {"measurement": "Content", "setting": "[7]; [19]", "result": 99.2, "unit": "%"},
      {"measurement": "Total Impurities", "setting": "[7]; [19]", "result": 2.9, "unit": "%"},
      {"measurement": "Content", "setting": "[7]; Day 0", "result": 100.0, "unit": "%"},
      {"measurement": "Total Impurities", "setting": "[7]; Day 0", "result": 2.4, "unit": "%"},
      {"measurement": "stability (conclusion)", "setting": "[7]; long-term conditions of 25° C./60% relative humidity", "result": "good stability"},
      {"measurement": "Area Under the Drug-Time Curve (0-inf)", "setting": "[8]", "result": 8.18, "unit": "µM·h"},
      {"measurement": "Peak Concentration", "setting": "[8]", "result": 0.70, "unit": "µM"},
      {"measurement": "Time to Peak Concentration", "setting": "[8]", "result": 5.00, "unit": "h"}
    ]}
  ]
}
